“And” between values parts separate entries of the source, which are not always exact repeats. Identical values can stand only once.
Legend:
HSV-1716 in A549 cells = assay: One step growth curve, A549 cells; format: cell-based, herpes simplex virus type 1; settings: cell line A549; low dose mitomycin C (0.1 micromolar)
[1] = test system: H460 (large cell carcinoma) cells; assay: In vitro cell viability assay, H460 cells; format: cell-based, human; settings: cell line H460; HSV-1716 at an MOI of 0.1, mitomycin C at 0.1 micromolar
Procedure: Individual chemotherapeutic agents were then added to selected wells.
Each treatment experiment was performed at least twice.

H460 tumors = assay: In vivo xenograft flank model; set-up: species or system SCID mice; settings: 22 days after injection of H460 cells
Procedure: The combined effects of mitomycin C and HSV-1716 using NSCLC tumors was assessed in vivo as follows. Cells of line H460 were implanted subcutaneously in the flanks of severe combined immunodeficient (SCID) mice. […] HSV-1716 was injected directly into individual tumors at a dose of 4×10^6 plaque forming units (pfu) in 200 microliters of medium. Control mice were injected with medium alone. Twenty-four hours later, 0.17 milligrams per kilogram body weight mitomycin C or an equivalent amount of PBS was administered to separate groups of HSV-treated and control mice. Tumor volume was estimated in all mice at regular intervals. Tumor volume in cubic millimeters was estimated using the formula
where TLmm was tumor length in millimeters and TWmm was tumor width in millimeters. Tumor growth curves were generated using the estimated values for tumor volume. After a period of 3-4 weeks, mice were sacrificed and their tumors were weighed.
In order to assess the oncolytic effect of mitomycin C in combination with HSV-1716, a murine xenograft model was used. […] These doses were designated ‘sufficient doses.’ H460 tumor cells were injected into the flanks of SCID mice. […] At that time, about 4×10^6 pfu of HSV-1716 or an equivalent volume of culture medium was injected into individual tumors. […]

HSV-1716 in H460 cells = assay: One step growth curve, H460 cells (black plaque assay); format: cell-based, herpes simplex virus type 1; settings: for burst size of HSV-1716: H460, MOI 0.1
Procedure: H460 cells were incubated overnight in six-well plates at a density of about 300,000 cells per well under standard culture condition. Following this incubation, the cells were infected with HSV-1716 at an MOI of 0.1 pfu. In a parallel experiment with five different experimental arms, the following procedures were performed. In the first and second arms, the cells were incubated in the presence of 0.1 micromolar mitomycin C or an equivalent additional volume of culture medium. Mediun or medium containing mitomycin C was added to the wells for 3 hours, either immediately before (in the first arm) or immediately following (in the second arm) infection of the cells with HSV-1716. In the other three arms, medium containing 0.1, 1.0, or 3.0 micromolar mitomycin C was added to the wells for 48 hours following infection of the cells with HSV-1716.
Cells were harvested from individual wells 1, 6, 19, 24, or 48 hours following infection. Cells were harvested by scraping cells from the walls of their well into the medium contained within the well. Harvested cells were stored at −80° C. Cell samples were titered by black plaque assay using baby hamster kidney cell (BHK) monolayers as described (Kucharczuk et al., 1997, Cancer Res. 57:466-471).
In order to examine what effect mitomycin C might have on viral replication, one step growth curve experiments were performed. H460 cells were infected with HSV-1716 at an MOI of 0.1, and then 0.1 or 1.0 or 3.0 micromolar mitomycin C was added to the cell culture medium. At selected times, cells were harvested and titered by black plaque assay as described herein. […] Addition of 1.0 or 3.0 micromolar mitomycin C for 48 hours after infection reduced burst size (13.7 and 0.2, respectively).

Question: For CO[C@@]12[C@H](COC(N)=O)C3=C(C(=O)C(C)=C(N)C3=O)N1C[C@@H]1N[C@@H]12 [mitomycin C], which “effect on burst size of HSV-1716” value (HSV-1716 in A549 cells) is on record?
Answer: Neither Augmented nor Reduced

Question: And the cell survival [1]?
Answer: 96.7%

Question: What about the “final mean tumor burden (tumor weight)” value (H460 tumors; HSV-1716 4×10^6 pfu intratumoral day 7, mitomycin C 0.17 mg/kg i.v. day 8, n=14) of the same compound?
Answer: 1.122±0.070 grams

Question: What about the “reduction of tumor burden relative to the control” value (H460 tumors; HSV-1716 4×10^6 pfu intratumoral, mitomycin C 0.17 mg/kg i.v.) of the same compound?
Answer: 20.2% and 21.8%

Question: And the “burst size of HSV-1716” value (HSV-1716 in H460 cells; 1.0 micromolar mitomycin C for 48 hours after infection)?
Answer: 13.7

Question: And the “burst size of HSV-1716” value (HSV-1716 in H460 cells; 3.0 micromolar mitomycin C for 48 hours after infection)?
Answer: 0.2

Question: What about the “burst size of HSV-1716” value (HSV-1716 in H460 cells; post-treatment with 0.1 micromolar mitomycin C for 3 hours) of the same compound?
Answer: 57.1

Question: And the “burst size of HSV-1716” value (HSV-1716 in H460 cells; post-treatment with 0.1 micromolar mitomycin C for 48 hours)?
Answer: 53.3

Question: What about the “burst size of HSV-1716” value (HSV-1716 in H460 cells; pre-treatment with 0.1 micromolar mitomycin C for 3 hours) of the same compound?
Answer: 42.1

Question: What about the “effect on burst size of HSV-1716” value (HSV-1716 in H460 cells; cell line H460, low dose mitomycin C (0.1 micromolar)) of the same compound?
Answer: Neither Augmented nor Reduced
